According to ChEMBL document CHEMBL4507291 (2021):

Tests used:
[1] = test system: Receptor-type tyrosine-protein kinase FLT3 (Homo sapiens), P36888 [N841I]
[2] = molecular target: Tyrosine-protein kinase JAK2 (Homo sapiens) (UniProt O60674)
[3] = molecular target: MAP kinase-activated protein kinase 2 (Homo sapiens) (UniProt P49137)
[4] = molecular target: Mitotic checkpoint serine/threonine-protein kinase BUB1 (Homo sapiens) (UniProt O43683)
[5] = molecular target: Protein-tyrosine kinase 2-beta (Homo sapiens) (UniProt Q14289)
Sequence of Protein-tyrosine kinase 2-beta (Homo sapiens) (Q14289 whole entry, looked up): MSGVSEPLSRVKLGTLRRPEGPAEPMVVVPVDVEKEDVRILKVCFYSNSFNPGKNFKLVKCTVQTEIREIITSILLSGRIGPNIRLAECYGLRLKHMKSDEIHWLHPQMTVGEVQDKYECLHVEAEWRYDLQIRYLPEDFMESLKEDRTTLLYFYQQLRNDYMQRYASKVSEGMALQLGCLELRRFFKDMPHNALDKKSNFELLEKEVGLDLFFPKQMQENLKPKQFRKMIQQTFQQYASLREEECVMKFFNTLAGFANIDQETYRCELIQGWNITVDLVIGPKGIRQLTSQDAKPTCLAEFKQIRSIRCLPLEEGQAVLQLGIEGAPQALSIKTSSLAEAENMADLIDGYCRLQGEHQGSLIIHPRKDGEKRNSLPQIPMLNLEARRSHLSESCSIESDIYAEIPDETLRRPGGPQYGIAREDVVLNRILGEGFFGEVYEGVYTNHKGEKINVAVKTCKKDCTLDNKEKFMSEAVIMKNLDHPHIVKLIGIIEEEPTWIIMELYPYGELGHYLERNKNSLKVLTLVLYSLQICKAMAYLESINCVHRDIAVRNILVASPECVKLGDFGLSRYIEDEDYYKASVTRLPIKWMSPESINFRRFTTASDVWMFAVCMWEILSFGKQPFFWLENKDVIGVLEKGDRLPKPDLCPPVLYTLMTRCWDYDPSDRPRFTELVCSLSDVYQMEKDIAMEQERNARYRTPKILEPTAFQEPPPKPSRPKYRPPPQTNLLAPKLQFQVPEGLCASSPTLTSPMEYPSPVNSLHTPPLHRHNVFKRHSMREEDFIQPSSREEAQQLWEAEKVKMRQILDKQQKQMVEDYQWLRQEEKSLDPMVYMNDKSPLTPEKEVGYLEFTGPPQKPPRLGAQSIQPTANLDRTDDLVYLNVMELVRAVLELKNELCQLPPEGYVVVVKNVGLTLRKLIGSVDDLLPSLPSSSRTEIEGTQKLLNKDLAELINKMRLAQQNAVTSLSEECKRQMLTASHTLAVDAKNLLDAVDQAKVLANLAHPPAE

[6] = molecular target: Serine/threonine-protein kinase SBK1 (Homo sapiens) (UniProt Q52WX2)
[7] = molecular target: Serine/threonine-protein kinase PAK 6 (Homo sapiens) (UniProt Q9NQU5)
[8] = test system: Epidermal growth factor receptor (Homo sapiens), P00533 [G719C]
[9] = molecular target: Casein kinase I isoform delta (Homo sapiens) (UniProt P48730)
[10] = molecular target: T1, Protein kinase C epsilon type (Homo sapiens) (UniProt Q02156)
T1 sequence (whole entry): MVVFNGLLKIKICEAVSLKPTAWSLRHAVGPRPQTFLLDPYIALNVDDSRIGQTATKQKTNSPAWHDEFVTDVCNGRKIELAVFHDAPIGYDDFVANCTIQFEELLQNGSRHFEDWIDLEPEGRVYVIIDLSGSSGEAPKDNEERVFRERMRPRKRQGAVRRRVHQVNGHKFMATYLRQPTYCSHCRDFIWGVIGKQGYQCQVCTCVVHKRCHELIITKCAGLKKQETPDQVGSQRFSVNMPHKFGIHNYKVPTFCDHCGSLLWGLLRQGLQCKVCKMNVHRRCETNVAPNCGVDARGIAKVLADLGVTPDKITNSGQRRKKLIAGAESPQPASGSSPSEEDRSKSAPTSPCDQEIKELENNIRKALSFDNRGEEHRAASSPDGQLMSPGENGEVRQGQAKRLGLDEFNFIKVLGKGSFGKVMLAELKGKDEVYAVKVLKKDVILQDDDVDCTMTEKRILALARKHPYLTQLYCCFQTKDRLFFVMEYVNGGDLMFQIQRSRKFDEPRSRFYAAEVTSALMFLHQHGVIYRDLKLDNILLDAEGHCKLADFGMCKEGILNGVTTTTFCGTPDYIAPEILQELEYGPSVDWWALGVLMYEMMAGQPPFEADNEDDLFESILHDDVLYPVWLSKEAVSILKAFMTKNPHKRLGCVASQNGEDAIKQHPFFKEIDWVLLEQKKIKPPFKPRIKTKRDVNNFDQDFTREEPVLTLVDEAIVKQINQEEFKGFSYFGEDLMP

[11] = molecular target: Mitogen-activated protein kinase 10 (Homo sapiens) (UniProt P53779)
Sequence of Mitogen-activated protein kinase 10 (Homo sapiens) (P53779 whole entry): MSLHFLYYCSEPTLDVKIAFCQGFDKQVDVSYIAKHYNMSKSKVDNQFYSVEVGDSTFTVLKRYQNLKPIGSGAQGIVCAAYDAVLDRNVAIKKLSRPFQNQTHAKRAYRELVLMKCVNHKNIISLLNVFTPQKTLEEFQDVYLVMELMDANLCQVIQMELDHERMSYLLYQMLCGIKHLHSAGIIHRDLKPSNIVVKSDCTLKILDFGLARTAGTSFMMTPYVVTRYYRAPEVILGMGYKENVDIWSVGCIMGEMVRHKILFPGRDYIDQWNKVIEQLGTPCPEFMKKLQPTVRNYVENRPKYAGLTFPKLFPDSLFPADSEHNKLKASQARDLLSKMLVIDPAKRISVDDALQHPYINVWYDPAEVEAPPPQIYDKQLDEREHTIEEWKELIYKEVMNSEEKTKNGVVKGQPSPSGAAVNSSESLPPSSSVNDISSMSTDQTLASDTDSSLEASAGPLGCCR

[12] = molecular target: T2, Serine/threonine-protein kinase Sgk1 (Homo sapiens) (UniProt O00141)
T2 sequence (whole entry): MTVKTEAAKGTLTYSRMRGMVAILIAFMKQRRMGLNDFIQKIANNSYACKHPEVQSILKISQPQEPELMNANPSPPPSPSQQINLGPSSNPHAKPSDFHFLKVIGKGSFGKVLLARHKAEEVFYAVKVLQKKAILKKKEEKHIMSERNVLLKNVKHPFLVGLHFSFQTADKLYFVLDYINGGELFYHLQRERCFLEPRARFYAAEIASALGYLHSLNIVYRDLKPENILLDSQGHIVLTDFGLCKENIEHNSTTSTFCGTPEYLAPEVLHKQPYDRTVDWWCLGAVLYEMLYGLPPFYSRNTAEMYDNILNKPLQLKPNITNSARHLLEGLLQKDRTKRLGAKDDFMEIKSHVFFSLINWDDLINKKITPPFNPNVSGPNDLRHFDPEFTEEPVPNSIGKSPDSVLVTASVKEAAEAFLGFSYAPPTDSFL

[13] = molecular target: Calcium/calmodulin-dependent protein kinase kinase 2 (Homo sapiens) (UniProt Q96RR4)
[14] = molecular target: Fibroblast growth factor receptor 3 (Homo sapiens) (UniProt P22607)
Sequence of Fibroblast growth factor receptor 3 (Homo sapiens) (P22607 23-806 limits assumed): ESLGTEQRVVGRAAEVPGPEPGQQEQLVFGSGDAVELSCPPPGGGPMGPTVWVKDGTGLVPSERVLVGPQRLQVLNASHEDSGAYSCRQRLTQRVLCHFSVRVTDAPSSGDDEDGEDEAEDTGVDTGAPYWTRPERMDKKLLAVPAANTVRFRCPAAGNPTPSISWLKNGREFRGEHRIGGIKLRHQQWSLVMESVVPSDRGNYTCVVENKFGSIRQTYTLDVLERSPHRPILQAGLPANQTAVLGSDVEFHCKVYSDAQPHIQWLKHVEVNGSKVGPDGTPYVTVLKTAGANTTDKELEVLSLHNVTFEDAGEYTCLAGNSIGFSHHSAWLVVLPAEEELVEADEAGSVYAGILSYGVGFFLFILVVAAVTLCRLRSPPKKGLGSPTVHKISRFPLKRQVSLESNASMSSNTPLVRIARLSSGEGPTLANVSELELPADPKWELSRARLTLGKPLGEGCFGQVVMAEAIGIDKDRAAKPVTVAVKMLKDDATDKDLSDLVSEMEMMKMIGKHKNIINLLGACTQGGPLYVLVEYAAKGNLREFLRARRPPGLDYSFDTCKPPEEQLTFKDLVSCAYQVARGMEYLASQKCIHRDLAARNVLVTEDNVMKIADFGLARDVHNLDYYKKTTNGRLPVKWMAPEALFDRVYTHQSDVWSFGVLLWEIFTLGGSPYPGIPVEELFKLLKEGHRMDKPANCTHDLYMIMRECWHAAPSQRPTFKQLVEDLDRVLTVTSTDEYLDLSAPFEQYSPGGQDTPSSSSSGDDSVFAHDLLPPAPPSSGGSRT

[15] = molecular target: Phosphatidylinositol 4,5-bisphosphate 3-kinase catalytic subunit alpha isoform (Homo sapiens) (UniProt P42336)
Sequence of Phosphatidylinositol 4,5-bisphosphate 3-kinase catalytic subunit alpha isoform (Homo sapiens) (P42336 whole entry, canonical isoform): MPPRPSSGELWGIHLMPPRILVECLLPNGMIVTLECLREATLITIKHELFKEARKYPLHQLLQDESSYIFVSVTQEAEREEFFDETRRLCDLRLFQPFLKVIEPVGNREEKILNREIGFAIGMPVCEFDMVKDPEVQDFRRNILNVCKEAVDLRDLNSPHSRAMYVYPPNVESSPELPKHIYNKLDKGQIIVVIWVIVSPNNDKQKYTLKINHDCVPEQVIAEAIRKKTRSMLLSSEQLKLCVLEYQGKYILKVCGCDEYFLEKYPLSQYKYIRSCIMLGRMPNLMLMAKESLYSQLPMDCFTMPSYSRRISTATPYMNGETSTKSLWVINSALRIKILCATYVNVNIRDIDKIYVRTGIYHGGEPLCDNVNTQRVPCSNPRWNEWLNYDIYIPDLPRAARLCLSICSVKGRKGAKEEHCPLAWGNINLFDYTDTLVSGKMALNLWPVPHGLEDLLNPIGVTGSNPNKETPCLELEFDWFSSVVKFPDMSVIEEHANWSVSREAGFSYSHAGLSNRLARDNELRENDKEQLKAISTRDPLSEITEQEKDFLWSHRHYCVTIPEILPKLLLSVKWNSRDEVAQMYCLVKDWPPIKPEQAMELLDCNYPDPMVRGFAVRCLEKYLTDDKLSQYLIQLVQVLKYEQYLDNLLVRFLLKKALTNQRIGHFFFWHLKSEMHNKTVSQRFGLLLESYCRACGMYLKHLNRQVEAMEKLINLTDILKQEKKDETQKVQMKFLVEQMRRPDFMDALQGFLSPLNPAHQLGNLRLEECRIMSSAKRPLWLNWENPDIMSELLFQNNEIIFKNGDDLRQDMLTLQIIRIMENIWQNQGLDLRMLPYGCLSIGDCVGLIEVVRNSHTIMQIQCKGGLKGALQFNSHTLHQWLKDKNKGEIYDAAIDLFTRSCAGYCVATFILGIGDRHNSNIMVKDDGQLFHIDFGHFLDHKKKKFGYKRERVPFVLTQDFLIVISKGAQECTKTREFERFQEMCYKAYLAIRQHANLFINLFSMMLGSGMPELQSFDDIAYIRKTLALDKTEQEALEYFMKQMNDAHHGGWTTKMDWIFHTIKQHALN

[16] = molecular target: T3, Tyrosine-protein kinase receptor TYRO3 (Homo sapiens) (UniProt Q06418)
T3 sequence (whole entry): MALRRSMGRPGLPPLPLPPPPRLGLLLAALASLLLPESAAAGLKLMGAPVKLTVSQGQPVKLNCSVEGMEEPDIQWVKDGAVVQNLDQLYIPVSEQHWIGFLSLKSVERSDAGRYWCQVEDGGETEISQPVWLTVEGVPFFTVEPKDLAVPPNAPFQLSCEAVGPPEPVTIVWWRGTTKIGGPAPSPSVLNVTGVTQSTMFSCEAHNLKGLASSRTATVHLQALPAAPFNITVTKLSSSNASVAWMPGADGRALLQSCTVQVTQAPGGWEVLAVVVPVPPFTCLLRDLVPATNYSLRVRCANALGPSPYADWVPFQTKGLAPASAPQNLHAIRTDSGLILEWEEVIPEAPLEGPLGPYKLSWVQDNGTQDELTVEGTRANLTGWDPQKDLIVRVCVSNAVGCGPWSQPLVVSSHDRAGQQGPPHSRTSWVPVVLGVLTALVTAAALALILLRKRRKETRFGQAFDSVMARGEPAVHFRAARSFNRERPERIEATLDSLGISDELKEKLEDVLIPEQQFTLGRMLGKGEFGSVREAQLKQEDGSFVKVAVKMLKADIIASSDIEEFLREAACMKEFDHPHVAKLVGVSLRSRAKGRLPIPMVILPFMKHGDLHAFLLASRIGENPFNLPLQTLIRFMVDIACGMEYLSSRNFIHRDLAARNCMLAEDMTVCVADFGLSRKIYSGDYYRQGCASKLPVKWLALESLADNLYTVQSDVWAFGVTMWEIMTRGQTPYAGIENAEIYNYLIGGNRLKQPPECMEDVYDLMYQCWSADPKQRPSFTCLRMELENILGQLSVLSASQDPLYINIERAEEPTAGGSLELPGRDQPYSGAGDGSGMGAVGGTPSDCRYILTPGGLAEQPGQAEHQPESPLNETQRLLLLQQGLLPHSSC

[17] = molecular target: Tyrosine-protein kinase JAK1 (Homo sapiens) (UniProt P23458)
[18] = Compound concentration 100.0 nM
[19] = Compound concentration 1000.0 nM

Sequence of MAP kinase-activated protein kinase 2 (Homo sapiens) (P49137 whole entry, looked up): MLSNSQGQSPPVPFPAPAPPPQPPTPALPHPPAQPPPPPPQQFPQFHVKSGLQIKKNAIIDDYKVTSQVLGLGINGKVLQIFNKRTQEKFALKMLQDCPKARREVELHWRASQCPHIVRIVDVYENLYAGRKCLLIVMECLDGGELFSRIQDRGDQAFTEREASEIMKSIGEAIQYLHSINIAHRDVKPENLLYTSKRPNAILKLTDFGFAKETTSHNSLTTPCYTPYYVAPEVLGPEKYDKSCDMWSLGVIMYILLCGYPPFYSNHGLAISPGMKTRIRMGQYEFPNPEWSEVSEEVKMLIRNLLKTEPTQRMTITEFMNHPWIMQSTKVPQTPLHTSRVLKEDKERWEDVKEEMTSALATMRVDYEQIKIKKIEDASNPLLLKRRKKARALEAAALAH
Sequence of Tyrosine-protein kinase JAK2 (Homo sapiens) (O60674 whole entry): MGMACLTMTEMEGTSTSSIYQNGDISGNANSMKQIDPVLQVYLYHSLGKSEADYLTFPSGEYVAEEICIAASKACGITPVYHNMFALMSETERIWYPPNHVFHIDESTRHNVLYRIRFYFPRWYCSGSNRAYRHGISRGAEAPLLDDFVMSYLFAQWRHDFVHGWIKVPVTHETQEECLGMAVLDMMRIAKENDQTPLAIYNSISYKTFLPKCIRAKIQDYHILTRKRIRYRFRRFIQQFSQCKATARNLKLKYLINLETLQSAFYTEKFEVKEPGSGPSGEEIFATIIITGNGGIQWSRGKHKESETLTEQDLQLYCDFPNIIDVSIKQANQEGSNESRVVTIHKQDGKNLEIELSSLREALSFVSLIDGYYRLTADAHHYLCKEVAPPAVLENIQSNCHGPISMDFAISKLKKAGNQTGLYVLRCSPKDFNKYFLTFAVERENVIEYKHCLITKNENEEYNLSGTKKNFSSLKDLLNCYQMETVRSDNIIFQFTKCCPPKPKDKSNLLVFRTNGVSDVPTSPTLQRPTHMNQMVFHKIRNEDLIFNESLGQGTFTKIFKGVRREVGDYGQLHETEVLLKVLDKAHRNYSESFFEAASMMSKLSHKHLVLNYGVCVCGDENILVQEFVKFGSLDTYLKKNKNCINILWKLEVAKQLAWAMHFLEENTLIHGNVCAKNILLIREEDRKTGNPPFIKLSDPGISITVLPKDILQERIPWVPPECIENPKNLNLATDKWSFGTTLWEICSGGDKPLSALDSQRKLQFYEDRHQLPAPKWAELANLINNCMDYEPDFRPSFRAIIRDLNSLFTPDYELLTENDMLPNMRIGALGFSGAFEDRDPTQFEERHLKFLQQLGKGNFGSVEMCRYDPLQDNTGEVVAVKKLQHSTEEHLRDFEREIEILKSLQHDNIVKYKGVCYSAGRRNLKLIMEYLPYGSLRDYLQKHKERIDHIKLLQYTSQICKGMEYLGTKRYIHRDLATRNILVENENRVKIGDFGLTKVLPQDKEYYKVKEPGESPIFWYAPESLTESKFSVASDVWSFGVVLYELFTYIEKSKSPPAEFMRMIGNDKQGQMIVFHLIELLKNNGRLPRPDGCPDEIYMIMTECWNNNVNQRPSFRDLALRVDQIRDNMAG

C[C@@H]1CN(c2cc(-c3n[nH]c4ccc(OC5(C)CC5)cc34)ncn2)C[C@H](C)O1 [MLi-2] showed a residual activity [1, 18] of 46%, a residual activity [2, 18] of 77% and a residual activity [3, 18] of 96%. For the same molecule, the residual activity [4, 18] was 84%, the residual activity [5, 18] was 100% and the residual activity [6, 18] was 88%. The residual activity [7, 18] was 100%, the residual activity [8, 18] was 63% and the residual activity [9, 18] was 80%. It also gave a residual activity [10, 18] of 95%, a residual activity [11, 18] of 77% and a residual activity [12, 18] of 89%. For the same molecule, the residual activity [13, 18] was 100%, the residual activity [14, 18] was 74% and the residual activity [15, 18] was 100%. For the same molecule, the residual activity [16, 18] was 100% and the residual activity [17, 18] was 88%.
C[C@@H]1CN(c2cc(-c3nn(C)c4ccc(OC5(C)CC5)cc34)ncn2)C[C@H](C)O1 [MLi-2-NC] was tested, and the residual activity [1, 19] was 85%, the residual activity [2, 19] was 55% and the residual activity [3, 19] was 93%. For the same molecule, the residual activity [4, 19] was 89%, the residual activity [5, 19] was 77% and the residual activity [6, 19] was 62%. The residual activity [7, 19] was 100%, the residual activity [8, 19] was 76% and the residual activity [9, 19] was 84%. The residual activity [10, 19] was 100%, the residual activity [11, 19] was 71% and the residual activity [12, 19] was 47%. For the same molecule, the residual activity [13, 19] was 85%, the residual activity [14, 19] was 100% and the residual activity [15, 19] was 100%. For the same molecule, the residual activity [16, 19] was 93% and the residual activity [17, 19] was 100%.
